Values quoted from earlier work in US20020082306A1, “Aqueous formulation of beta carotene” (Sanochemia Pharmazeutika Aktiengesellschaft, priority 1998, published 2002).

What was measured:
[1] = in the presence of light and heat

## CC1=C(/C=C/C(C)=C/C=C/C(C)=C/C=C/C=C(C)/C=C/C=C(C)/C=C/C2=C(C)CCCC2(C)C)C(C)(C)CCC1 [Beta-carotene, beta-carotene]
cyclohexane
  solubility in cyclohexane: hardly soluble
ethanol
  solubility in ethanol: hardly soluble
ether
  solubility in ether: hardly soluble
Water as well as the usually employed aqueous formulations
  solubility in water: practically insoluble
[1]
  decomposition of dissolved beta-carotene by oxygen from ambient air: easily decomposed
